Assays:
[1] = test system: Bcl-2; test: Western blot of Bcl-2 in ARPE-19 cells under TNFα/H2O2; assay type: cell-based, human; settings: 50 nM; TNFα plus H2O2 (400 or 800 μM) 6 h
Method: (§1) Analysis of pro- and anti-apoptotic proteins in ARPE-19 cells: Bcl-2 family proteins were analyzed by Western-blot analysis. In brief, 20-μg equivalents of each cell extract were subjected to electrophoresis on a 8-16% gel (Promega, Madison, Wis.) at 125 volts for 2 h. The proteins were transferred to nitrocellulose membrane at 30 volts for 1 h at 4° C. The membranes were subjected to treatment with primary antibodies of Bcl-2, Bcl-xL, Bax, and Bad for 1 h at room temperature, and probed 30 min with secondary antibody, goat anti-rabbit Ig:HRPO and HRP-conjugated anti-biotin antibody. (BD Sciences—Pharminogen, San Diego, Calif.) Then proteins were evaluated using an ECL kit. (Amersham Biosciences Corp., Piscataway, N.J.)
(§2) Using the same TNFα/H2O2 concentrations, Bcl-2 proteins were assayed. Cells were grown for 72 h after plating, placed in serum-free medium for 1 h, then incubated with TNFα/H2O2 for 6 h. Protein expression and Western-blot analysis were performed as described in Example 13. Data in FIGS. 14A, 14B, 14C and 14D represent four independent experiments with triplicate samples in each case. Anti-apoptotic protein Bcl-xL was enhanced in ARPE-19 cells by TNFα/H2O2 (800 μM) (FIG. 14B, first bar), whereas Bcl-2 was not changed (FIG. 14A, first bar).

[2] = test system: STAT-1; test: EMSA of STAT-1 in IL-1β-exposed human neural progenitor cells; assay type: cell-based; settings: HN progenitor cells
Method: Human neural (HN) progenitor cells in primary culture. HN cells were grown to ˜70% confluence (˜50,000 cells per 3.5-cm diameter well) in 6-well COSTAR plates at 37° C., 5% CO2/20% O2/75% N2 in humidified air at 1 atm (normoxic conditions) in NPMM medium (Clonetics CC-4241) supplemented with hFGF, NSF-1, hEGF, GA-1000, as described by the manufacturer (Clonetics, Walkersville, Md.). HN cells tested negative for HIV-1, hepatitis B and C, mycoplasma, bacteria, yeast, and fungi, and positive for the glial and neuronal markers GFAP, MAP2, and β-tubulin III (Clonetics). […]
Electrophoretic mobility-shift assay (EMSA) of human AP1, HIF-1α, NF-κBp50/p65, and STAT-1α. Nuclear protein extracts (NPXTs) were prepared from one to three 3.5 cm-diameter wells of HN cells and quantitated. NPXTs (5 μg) derived from HN cells were incubated with[γ-^32P]-ATP (˜3000 Ci/mmol)-end-labeled AP1, HIF-1α, NF-κκBp50/p65, or STAT-1α consensus and mutant oligonucleotides in 5-μl volumes, reacted for 30 min on ice, analyzed on 5% or 10% acrylamide/90 mM Tris-borate pH 8.4, 1 mM EDTA (TBE) gels, dried onto 2-mm Whatman filter paper at 80° C. for 2 h, and phosphorimaged using a Typhoon Variable Mode Imager (Amersham Pharmacia Biotech, Piscataway, N.J. ).

[3] = test system: caspase-3; test: Caspase-3 cleavage analysis by Western blot (PARP); assay type: cell-based, human; settings: NPD1 50 nM added with TNFα/H2O2, 6-8 h; TNFα/H2O2 alone 80.8%
Method: Caspase-3 cleavage analysis: Caspase-3 cleavage was evaluated by Western-blot analysis after using PARP as substrate. Briefly, 20 μg equivalent of each cell extract was electrophoresed on an 8-16% gel (Promega, Madison, Wis.) for 2 h at 125 volts. The proteins were transferred onto nitrocellulose membranes as before, and probed with PARP antibody (Santa Cruz Biotechnology, Santa Cruz, Calif.). The degradation of PARP was evaluated using ECL kit.
Effector caspase-3, downstream of pro- and anti-apoptotic proteins, is activated as a consequence of mitochondrial cytochrome c release into the cytoplasm and activation of the apoptosome. ARPE-19 cells were serum-starved for 1 h prior to a 6- to 8-h treatment with TNF-α (10 ng)+H2O2 (either 400 or 800 μM as indicated) in the presence or absence of NPD1 (50 nM). In FIG. 15A, caspase-3 cleavage was detected by Western-blot analysis using PARP (Santa Cruz Biotech.) as antibody. […] In ARPE-19 cells, caspase-3-induced cleavage using endogenous substrate occurred when TNFα/H2O2-triggered oxidative stress was present, as indicated by increased PARP accumulation (an 80.8% increase compared to the control; FIG. 15A).

[4] = test system: COX-1 mRNA; test: COX-1 mRNA in human neural progenitor cells; assay type: cell-based
Method: Human neural (HN) progenitor cells in primary culture. HN cells were grown to ˜70% confluence (˜50,000 cells per 3.5-cm diameter well) in 6-well COSTAR plates at 37° C., 5% CO2/20% O2/75% N2 in humidified air at 1 atm (normoxic conditions) in NPMM medium (Clonetics CC-4241) supplemented with hFGF, NSF-1, hEGF, GA-1000, as described by the manufacturer (Clonetics, Walkersville, Md.). HN cells tested negative for HIV-1, hepatitis B and C, mycoplasma, bacteria, yeast, and fungi, and positive for the glial and neuronal markers GFAP, MAP2, and β-tubulin III (Clonetics). After two weeks of development, HN cells were exposed to human recombinant interleukin 1-beta (IL-1β) (10 ng/ml) for 3 h in the presence or absence of 0.03, 0.3, 3.0, 30, and 300 nM 10,17S-docosatriene (NPD1), DHA, or PBS pH 7.4 (control). RNA and protein were quickly isolated using Trizol Reagent (Invitrogen, Carlsbad, Calif.) and stored at −81° C. within minutes of isolation.
(§3) COX-2 RNA abundance in hippocampus and HN cells. Abundance of human-specific COX-1 and COX-2 RNA message was assayed using RT-PCR as described in Bazan, N. G., and Lukiw, W. J. (2002) J. Biol. Chem. 277, 30359-30367.

[5] = test system: Bcl-2 gene expression; test: HGU133 GeneChip DNA array in HN cells: Bcl-2; assay type: cell-based, human; settings: Aβ42 25 μM, DHA 50 nM or NPD1 50 nM, 18 h, nsc = no significant change
[6] = test system: COX-2 gene expression; test: HGU133 GeneChip DNA array in HN cells: COX-2; assay type: cell-based, human; settings: Aβ42 25 μM, DHA 50 nM or NPD1 50 nM, 18 h, nsc = no significant change
[7] = test system: COX-1 expression; test: COX-1 mRNA abundance in ipsilateral hippocampus after MCA-O; assay type: in vivo, mouse; settings: 1 h MCA-O, 2 h reperfusion, NPD1 0.16 μg/ml infused
Method: as §3
To determine COX-1 and COX-2 expression, mRNA abundance in the ipsilateral hippocampus was measured. […] A 3-fold increase of COX-2 was seen due to MCA-O reperfusion (FIG. 7C). The infusion of the precursor DHA as well as its product 10,17S-docosatriene (NPD1) inhibited COX-2 expression by 14% and 52%, respectively.

[8] = test system: Bcl-xL; test: Western blot of Bcl-xL in ARPE-19 cells under TNFα/H2O2; assay type: cell-based, human; settings: 50 nM; TNFα plus H2O2 (400 or 800 μM) 6 h
Method: as §1, §2

[9] = test system: Bcl-xL gene expression; test: HGU133 GeneChip DNA array in HN cells: Bcl-xL; assay type: cell-based, human; settings: Aβ42 25 μM, DHA 50 nM or NPD1 50 nM, 18 h, nsc = no significant change
[10] = test system: Bax gene expression; test: HGU133 GeneChip DNA array in HN cells: Bax; assay type: cell-based, human; settings: Aβ42 25 μM, DHA 50 nM or NPD1 50 nM, 18 h, nsc = no significant change
Description: Total RNA quality and abundance were profiled using RNA Nano LabChips (Caliper Technologies, Mountainview, Calif.; Agilent Technologies, Palo Alto, Calif.).
Biotinylated antisense cRNAs were synthesized from cDNA using the Superscript Choice System (Invitrogen) and Enzo Biorray High Yield RNA Transcript Labeling kits according to the manufacturer's protocols (Affymetrix) and as described in Colangelo, V., Schurr, J., Ball, M. J., Pelaez, R. P., Bazan, N. G., Lukiw, W. J. (2002) J. Neurosci. […] Probes were hybridized against HU133Av2 GeneChip DNA arrays that interrogate approximately 33,000 full-length mouse genes and expressed sequence tag (EST) clusters.
DNA arrays were scanned at 570 nm, and significant features were extracted using Data Mining Tool 3.0 (Affymetrix). Data analyses and graphic presentations were performed using Microarray Suite 5.0 (Affymetrix), GeneSpring 6.0 (Silicon Genetics, Redwood City, Calif.) and Adobe Photoshop 6.0 (Adobe Systems, San Jose, Calif.). Volcano plots were plotted representing total gene expression patterns as a function of fold-change as compared to expression patterns of age-matched controls as plotted against p, as calculated by an analysis of variance (ANOVA). […] Statistical significance was analyzed using a two-way factorial analysis of variance (p, ANOVA; Statistical Analysis System; SAS Institute, Cary, N.C. ).

[11] = test system: Bad; test: Western blot of Bad in ARPE-19 cells under TNFα/H2O2; assay type: cell-based, human; settings: 50 nM; similar conditions (800 μM H2O2 with TNFα)
Method: as §1, §2

**Q.** For `CC/C=C\C[C@H](O)\C=C/C=C/C=C/[C@H](O)C/C=C\C/C=C\CCC(=O)O` [NPD1, 10,17S-docosatriene], which “effect on Bcl-2 expression” value [1] is on record?
**A.** increased expression

**Q.** And the “effect on STAT-1” value [2]?
**A.** unaffected

**Q.** What about the “PARP accumulation (caspase-3 activation), increase compared to the control” value [3] of the same molecule?
**A.** 18.3%

**Q.** And the “effect on basal level of COX-1 mRNA” value [4]?
**A.** seemed to decrease

**Q.** What about the “Bcl-2 gene expression, fold change over untreated controls” value [5] of the same molecule?
**A.** +3.3 fold

**Q.** What about the “COX-2 gene expression, fold change over untreated controls” value [6] of the same molecule?
**A.** nsc

**Q.** What about the “decrease of COX-1 expression (mRNA)” value [7] of the same molecule?
**A.** 19%

**Q.** And the “effect on Bcl-xL expression” value [8]?
**A.** increased expression

**Q.** And the “Bcl-xL gene expression, fold change over untreated controls” value [9]?
**A.** +2.4 fold

**Q.** What about the “Bax gene expression, fold change over untreated controls” value [10] of the same molecule?
**A.** nsc

**Q.** And the “decrease of oxidative stress-increased Bad” value [11]?
**A.** 52%

From patent US20050075398A1, “Neuroprotectin D1 protects against cellular apoptosis, stroke damage, alzheimer's disease and retinal diseases” (priority 2003, published 2005)
